Measurements published in paper PMC7419507, “In vitro Cas9-assisted editing of modular polyketide synthase genes to produce desired natural product derivatives” (Nature Communications, 2020).
Values joined by “and” are separate entries in the source; they are usually repeats but may differ in a detail not shown here. Equal values may be shown once.

Biological target: T1, FKBP12 and mTOR (Homo sapiens, UniProt P42345+P62942)
T1 construct: host or cells: HeLa cells
Experiment: Fluoppi analysis: induction of FKBP12-mTOR complex formation in transfected HeLa cells
Type: cell-based
Conditions: for Foci intensity: raw data, one replicate per line
Method in brief: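 Complex formation read as fluorescent foci: foci intensity over total per-cell intensity, imaged (×20, 9 fields/well) after fixation and Hoechst stain, giving EC50. Cells: HeLa transiently expressing hAG-mTOR and Ash-FKBP12, exposed to compound concentrations for 1 h at 37 °C.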

T1 sequence (P42345 2025-2114 limits assumed): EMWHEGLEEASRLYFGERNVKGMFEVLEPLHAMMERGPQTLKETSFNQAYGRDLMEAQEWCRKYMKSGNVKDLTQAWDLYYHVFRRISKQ
T1 sequence (P62942 whole entry): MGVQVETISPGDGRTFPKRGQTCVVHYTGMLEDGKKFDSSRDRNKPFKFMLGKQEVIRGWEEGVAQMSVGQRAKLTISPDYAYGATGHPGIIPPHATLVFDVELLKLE

PPI-inducing (binding enhancing) activity between FKBP12 and mTOR compared with rapamycin (1), in words (Fluoppi): much less potent than 1
EC50 (Fluoppi, HeLa cells, 1 h treatment, three independent biological replicates, read-out: EC50, induction of the formation of FKBP-mTOR complex): 320 nM
Foci intensity (conc 9.53674e-5 uM): 0.01546 and 0.009859 and 0.01479
Foci intensity (conc 0.000190735 uM): 0.02291 and 0.01436 and 0.01269
Foci intensity (conc 0.00038147 uM): 0.01763 and 0.009567 and 0.009808
Foci intensity (conc 0.000762939 uM): 0.02965 and 0.01327 and 0.0132
Foci intensity (conc 0.00152588 uM): 0.01988 and 0.005935 and 0.01208
Foci intensity (conc 0.00305176 uM): 0.01996 and 0.02873 and 0.02267
Foci intensity (conc 0.00610352 uM): 0.009728 and 0.0229 and 0.03931
Foci intensity (conc 0.012207 uM): 0.02585 and 0.06278 and 0.01094
Foci intensity (conc 0.0244141 uM): 0.02982 and 0.02323 and 0.02961
Foci intensity (conc 0.0488281 uM): 0.03327 and 0.007263 and 0.02034
Foci intensity (conc 0.0976562 uM): 0.0343 and 0.0166 and 0.04409
Foci intensity (conc 0.195312 uM): 0.1225 and 0.05897 and 0.08613
Foci intensity (conc 0.390625 uM): 0.2002 and 0.2003 and 0.254
Foci intensity (conc 0.78125 uM): 0.2477 and 0.2297 and 0.3237
Foci intensity (conc 1.5625 uM): 0.2891 and 0.3472 and 0.3016
Foci intensity (conc 3.125 uM): 0.3418 and 0.3544 and 0.3825
Foci intensity (conc 6.25 uM): 0.285 and 0.273 and 0.328
Foci intensity (conc 12.5 uM): 0.2778 and 0.3903 and 0.3448
Foci intensity (conc 25 uM): 0.3624 and 0.278 and 0.3289
Foci intensity (conc 50 uM): 0.2714 and 0.2974 and 0.3445
Structure (SMILES): CO[C@H]1C[C@@H]2CC[C@@H](C)[C@@](O)(O2)C(=O)C(=O)N2CCCC[C@H]2C(=O)O[C@H]([C@H](C)C[C@@H]2CC[C@@H](O)[C@H](OC)C2)CC(=O)[C@H](C)/C=C(\C)[C@@H](O)CC[C@H](C)/C=C/C=C/C=C/1C [Compound 7]
